# Experiments:
# [1] = biological target: T1, 5-hydroxytryptamine receptor 1A (Rattus norvegicus, UniProt P19327)
# T1 sequence (P19327 whole entry): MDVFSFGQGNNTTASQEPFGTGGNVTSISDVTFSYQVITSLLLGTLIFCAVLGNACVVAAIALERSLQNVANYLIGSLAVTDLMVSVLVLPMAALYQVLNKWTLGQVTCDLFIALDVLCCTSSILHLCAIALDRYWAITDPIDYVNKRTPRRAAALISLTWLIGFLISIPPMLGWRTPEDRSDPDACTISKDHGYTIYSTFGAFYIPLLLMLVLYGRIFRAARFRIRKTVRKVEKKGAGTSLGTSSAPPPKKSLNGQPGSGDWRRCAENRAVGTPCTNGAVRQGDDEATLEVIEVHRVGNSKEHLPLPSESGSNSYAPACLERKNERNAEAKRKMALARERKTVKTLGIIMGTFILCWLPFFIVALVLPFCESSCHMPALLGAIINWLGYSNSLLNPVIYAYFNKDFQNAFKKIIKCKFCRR
# Description: (§1) In vitro binding affinity for 5-hydroxytryptamine 1A receptor in rat hippocampal membranes by [125I]-labeled agonist displacement.
# [2] = test system: Rattus norvegicus; experiment: Biodistribution was measured in blood of rat by injecting the radiolabeled compound intravenously and the value measured after 2 min; format: ADME, organism-based; conditions: in vivo, iv
# [3] = test system: Rattus norvegicus; experiment: Biodistribution was measured in rat muscle by injecting the radiolabeled compound intravenously and the value measured after 30 min; format: ADME, organism-based, Muscle tissue; conditions: in vivo, iv, 0.5 h
# [4] = test system: Rattus norvegicus; experiment: Biodistribution was measured in rat muscle by injecting the radiolabeled compound intravenously and the value measured after 60 min; format: ADME, organism-based, Muscle tissue; conditions: in vivo, iv, 1 h
# [5] = test system: Rattus norvegicus; experiment: Biodistribution was measured in rat spleen by injecting the radiolabeled compound intravenously and the value measured after 60 min; format: ADME, organism-based; conditions: in vivo, iv, 1 h
# [6] = test system: Rattus norvegicus; experiment: Biodistribution was measured in rat striatum by injecting the radiolabeled compound intravenously and the value measured after 2 min; format: ADME, organism-based; conditions: in vivo, iv
# [7] = test system: Rattus norvegicus; experiment: Biodistribution was measured in rat striatum by injecting the radiolabeled compound intravenously and the value measured after 30 min; format: ADME, organism-based; conditions: in vivo, iv, 0.5 h
# [8] = test system: Rattus norvegicus; experiment: Biodistribution was measured in rat striatum by injecting the radiolabeled compound intravenously and the value measured after 60 min; format: ADME, organism-based; conditions: in vivo, iv, 1 h
# [9] = test system: Rattus norvegicus; experiment: Biodistribution was measured in rat thyroid by injecting the radiolabeled compound intravenously and the value measured after 2 min; format: ADME, organism-based, Thyroid gland; conditions: in vivo, iv
# [10] = test system: Rattus norvegicus; experiment: Biodistribution was measured in rat thyroid by injecting the radiolabeled compound intravenously and the value measured after 30 min; format: ADME, organism-based, Thyroid gland; conditions: in vivo, iv, 0.5 h
# [11] = test system: Rattus norvegicus; experiment: Biodistribution was measured in rat thyroid by injecting the radiolabeled compound intravenously and the value measured after 60 min; format: ADME, organism-based, Thyroid gland; conditions: in vivo, iv, 1 h
# [12] = test system: Rattus norvegicus; experiment: Biodistribution was measured in rat skin by injecting the radiolabeled compound intravenously and the value measured after 30 min; format: ADME, organism-based, Zone of skin; conditions: in vivo, iv, 0.5 h
# [13] = test system: Rattus norvegicus; experiment: Biodistribution was measured in rat spleen by injecting the radiolabeled compound intravenously and the value measured after 2 min; format: ADME, organism-based; conditions: in vivo, iv
# [14] = test system: Rattus norvegicus; experiment: Biodistribution was measured in rat spleen by injecting the radiolabeled compound intravenously and the value measured after 30 min; format: ADME, organism-based; conditions: in vivo, iv, 0.5 h
# [15] = test system: Rattus norvegicus; experiment: Biodistribution was measured in rat liver by injecting the radiolabeled compound intravenously and the value measured after 30 min; format: ADME, organism-based; conditions: in vivo, iv, 0.5 h
# [16] = test system: Rattus norvegicus; experiment: Biodistribution was measured in rat liver by injecting the radiolabeled compound intravenously and the value measured after 60 min; format: ADME, organism-based; conditions: in vivo, iv, 1 h
# [17] = test system: Rattus norvegicus; experiment: Biodistribution was measured in rat lung by injecting the radiolabeled compound intravenously and the value measured after 2 min; format: ADME, organism-based; conditions: in vivo, iv
# [18] = test system: Rattus norvegicus; experiment: Biodistribution was measured in rat lung by injecting the radiolabeled compound intravenously and the value measured after 30 min; format: ADME, organism-based; conditions: in vivo, iv, 0.5 h
# [19] = test system: Rattus norvegicus; experiment: Biodistribution was measured in rat lung by injecting the radiolabeled compound intravenously and the value measured after 60 min; format: ADME, organism-based; conditions: in vivo, iv, 1 h
# [20] = test system: Rattus norvegicus; experiment: Biodistribution was measured in rat muscle by injecting the radiolabeled compound intravenously and the value measured after 2 min; format: ADME, organism-based, Muscle tissue; conditions: in vivo, iv
# [21] = test system: Rattus norvegicus; experiment: Biodistribution was measured in blood of rat by injecting the radiolabeled compound intravenously and the value measured after 60 min; format: ADME, organism-based; conditions: in vivo, iv, 1 h
# [22] = Biodistribution was measured in hippocampus region(HP/CB) by injecting the radiolabeled compound intravenously and the value measured after 2 min; format: ADME, organism-based; conditions: in vivo, iv
# [23] = Biodistribution was measured in hippocampus region(HP/CB) by injecting the radiolabeled compound intravenously and the value measured after 30 min; format: ADME, organism-based; conditions: in vivo, iv, 0.5 h
# [24] = Biodistribution was measured in hippocampus region(HP/CB) by injecting the radiolabeled compound intravenously and the value measured after 60 min; format: ADME, organism-based; conditions: in vivo, iv, 1 h
# [25] = test system: Rattus norvegicus; experiment: Biodistribution was measured in rat brain by injecting the radiolabeled compound intravenously and the value measured after 2 min; format: ADME, organism-based; conditions: in vivo, iv
# [26] = test system: Rattus norvegicus; experiment: Biodistribution was measured in rat brain by injecting the radiolabeled compound intravenously and the value measured after 30 min; format: ADME, organism-based; conditions: in vivo, iv, 0.5 h
# [27] = test system: Rattus norvegicus; experiment: Biodistribution was measured in rat brain by injecting the radiolabeled compound intravenously and the value measured after 60 min; format: ADME, organism-based; conditions: in vivo, iv, 1 h
# [28] = test system: Rattus norvegicus; experiment: Biodistribution was measured in rat cerebellum by injecting the radiolabeled compound intravenously and the value measured after 30 min; format: ADME, organism-based; conditions: in vivo, iv, 0.5 h
# [29] = test system: Rattus norvegicus; experiment: Biodistribution was measured in rat cerebellum by injecting the radiolabeled compound intravenously and the value measured after 60 min; format: ADME, organism-based; conditions: in vivo, iv, 1 h
# [30] = test system: Rattus norvegicus; experiment: Biodistribution was measured in rat cortex by injecting the radiolabeled compound intravenously and the value measured after 2 min; format: ADME, organism-based; conditions: in vivo, iv
# [31] = test system: Rattus norvegicus; experiment: Biodistribution was measured in rat cortex by injecting the radiolabeled compound intravenously and the value measured after 30 min; format: ADME, organism-based; conditions: in vivo, iv, 0.5 h
# [32] = test system: Rattus norvegicus; experiment: Biodistribution was measured in rat cortex by injecting the radiolabeled compound intravenously and the value measured after 60 min; format: ADME, organism-based; conditions: in vivo, iv, 1 h
# [33] = test system: Rattus norvegicus; experiment: Biodistribution was measured in rat heart by injecting the radiolabeled compound intravenously and the value measured after 2 min; format: ADME, organism-based; conditions: in vivo, iv
# [34] = test system: Rattus norvegicus; experiment: Biodistribution was measured in rat heart by injecting the radiolabeled compound intravenously and the value measured after 30 min; format: ADME, organism-based; conditions: in vivo, iv, 0.5 h
# [35] = test system: Rattus norvegicus; experiment: Biodistribution was measured in rat heart by injecting the radiolabeled compound intravenously and the value measured after 60 min; format: ADME, organism-based; conditions: in vivo, iv, 1 h
# [36] = test system: Rattus norvegicus; experiment: Biodistribution was measured in rat hippocampus by injecting the radiolabeled compound intravenously and the value measured after 2 min; format: ADME, organism-based; conditions: in vivo, iv
# [37] = test system: Rattus norvegicus; experiment: Biodistribution was measured in rat hippocampus by injecting the radiolabeled compound intravenously and the value measured after 60 min; format: ADME, organism-based; conditions: in vivo, iv, 1 h
# [38] = test system: Rattus norvegicus; experiment: Biodistribution was measured in rat kidney by injecting the radiolabeled compound intravenously and the value measured after 2 min; format: ADME, organism-based; conditions: in vivo, iv
# [39] = test system: Rattus norvegicus; experiment: Biodistribution was measured in rat kidney by injecting the radiolabeled compound intravenously and the value measured after 30 min; format: ADME, organism-based; conditions: in vivo, iv, 0.5 h
# [40] = test system: Rattus norvegicus; experiment: Biodistribution was measured in rat liver by injecting the radiolabeled compound intravenously and the value measured after 2 min; format: ADME, organism-based; conditions: in vivo, iv
# [41] = test system: Rattus norvegicus; experiment: Biodistribution was measured in rat cerebellum by injecting the radiolabeled compound intravenously and the value measured after 2 min; format: ADME, organism-based; conditions: in vivo, iv
# [42] = test system: Rattus norvegicus; experiment: Biodistribution was measured in rat hippocampus by injecting the radiolabeled compound intravenously and the value measured after 30 min; format: ADME, organism-based; conditions: in vivo, iv, 0.5 h
# [43] = test system: Rattus norvegicus; experiment: Biodistribution was measured in rat skin by injecting the radiolabeled compound intravenously and the value measured after 60 min; format: ADME, organism-based, Zone of skin; conditions: in vivo, iv, 1 h
# [44] = test system: Rattus norvegicus; experiment: Biodistribution was measured in blood of rat by injecting the radiolabeled compound intravenously and the value measured after 30 min; format: ADME, organism-based; conditions: in vivo, iv, 0.5 h
# [45] = test system: Rattus norvegicus; experiment: Biodistribution was measured in rat kidney by injecting the radiolabeled compound intravenously and the value measured after 60 min; format: ADME, organism-based; conditions: in vivo, iv, 1 h
# [46] = biological target: T1, 5-hydroxytryptamine receptor 1A; remark: listed apart in the source
# Description: as §1
smiles,measurement,setting,value
COc1ccccc1N1CCN(CCN2Cc3ccccc3C2=O)CC1,Ki,[1],14.9 nM
COc1ccccc1N1CCN(CCN2C(=O)c3cc(I)ccc3C2(O)c2ccccc2)CC1 (centres undefined),Ki,[1],0.65 nM
COc1ccccc1N1CCN(CCN2C(=O)CCC2c2ccc(I)cc2)CC1 (centres undefined),Biodistribution,[2],5.6 % dose organ-1
same,Biodistribution,[3],19.08 % dose organ-1
same,Biodistribution,[4],9.05 % dose organ-1
same,Biodistribution,[5],0.15 % dose organ-1
same,Biodistribution,[6],0.55 % dose organ-1
same,Biodistribution,[7],0.15 % dose organ-1
same,Biodistribution,[8],0.053 % dose organ-1
same,Biodistribution,[9],0.06 % dose organ-1
same,Biodistribution,[10],0.04 % dose organ-1
same,Biodistribution,[11],0.03 % dose organ-1
same,Biodistribution,[12],7.41 % dose organ-1
same,Biodistribution,[13],0.27 % dose organ-1
same,Biodistribution,[14],0.22 % dose organ-1
same,Biodistribution,[15],23.02 % dose organ-1
same,Biodistribution,[16],17.95 % dose organ-1
same,Biodistribution,[17],1.54 % dose organ-1
same,Biodistribution,[18],0.75 % dose organ-1
same,Biodistribution,[19],0.42 % dose organ-1
same,Biodistribution,[20],14.07 % dose organ-1
same,Biodistribution,[21],2.08 % dose organ-1
same,Biodistribution,[22],1.02 % dose organ-1
same,Biodistribution,[23],1.08 % dose organ-1
same,Biodistribution,[24],0.88 % dose organ-1
same,Biodistribution,[25],0.71 % dose organ-1
same,Biodistribution,[26],0.21 % dose organ-1
same,Biodistribution,[27],0.08 % dose organ-1
same,Biodistribution,[28],0.12 % dose organ-1
same,Biodistribution,[29],0.051 % dose organ-1
same,Biodistribution,[30],0.57 % dose organ-1
same,Biodistribution,[31],0.14 % dose organ-1
same,Biodistribution,[32],0.048 % dose organ-1
same,Biodistribution,[33],0.77 % dose organ-1
same,Biodistribution,[34],0.33 % dose organ-1
same,Biodistribution,[35],0.18 % dose organ-1
same,Biodistribution,[36],0.47 % dose organ-1
same,Biodistribution,[37],0.045 % dose organ-1
same,Biodistribution,[38],3.02 % dose organ-1
same,Biodistribution,[39],2.2 % dose organ-1
same,Biodistribution,[40],19.49 % dose organ-1
same,Biodistribution,[41],0.46 % dose organ-1
same,Biodistribution,[42],0.13 % dose organ-1
same,Biodistribution,[43],6.93 % dose organ-1
same,Biodistribution,[44],3.45 % dose organ-1
same,Biodistribution,[45],1 % dose organ-1
same,Ki,[1],2.54 nM
same,Ki,[46],2.54 nM
COc1ccccc1N1CCN(CCn2c(=O)c3ccccc3c3ccccc32)CC1,Ki,[1],8.9 nM
